Data published in patent publication EP0421935B1, “Insect neuropeptides” (Novartis AG, priority 1989, dated 1999).
Bridge positions count the residues as written; N and C are the ends. Square brackets hold non-standard residues; d marks the D form. Peptide text beside a SMILES is read from it. pGlu = O=C1CC[C@@H](C(=O)O)N1

System: corpora allata which have been surgically removed from newly molted 5 stadium Manduca sexta larvae
Assay: in vitro JH biosynthesis assay (rate of [14C]JH biosynthesis by excised CC/CA complex)
Type: cell-based
Method: The biological activity of native LAS and LASA's is tested in an in vitro JH-biosynthesis assay using newly molted 5th stadium Manduca sexta larval CC/CA complex. The biological activity of each of the LAS and LASA preparations made according to the following examples is assayed according to a procedure essentially as described (except for media employed) by Pratt and Tobe, 1974 Life Sci vl4:575-586, which is incorporated by reference. This procedure measures the rate of biosynthesis of Juvenile Hormone (JH) by the corpora allata which have been surgically removed from newly molted 5 stadium Manduca sexta larvae. One corpus cardiacum-corpus allatum complex is maintained in 100 µl of TC-199 medium (components of which are shown below) and Hank's salts, and is shaken using a mechanical shaker. The sample to be tested for LAS-like activity is dried and dissolved in TC-199 medium. Then an equal volume of TC-199 medium containing [^14C] methionine is added, and allowed to incubate for 4 hours. […] is extracted from the medium using iso-octane and the extract is assayed by liquid scintillation counting. The rate of biosynthesis by glands exposed to the sample is compared to the rate observed for control glands. The presence of LAS or LASA causes a decrease in the rate of biosynthesis.

For `CC[C@H](C)[C@@H]1NC(=O)[C@@H]2CCCN2C(=O)[C@H](CC(N)=O)NC(=O)[C@H](Cc2ccccc2)NC(=O)[C@H](Cc2ccc(O)cc2)NC(=O)[C@@H](NC(=O)[C@H](CCC(N)=O)NC(=O)[C@H](CCCNC(=N)N)NC(=O)[C@H](Cc2ccccc2)NC(=O)[C@H](CCCNC(=N)N)NC(=O)[C@@H](NC(=O)[C@@H]2CCC(=O)N2)C(C)C)CSSC[C@@H](C(=O)N[C@@H](Cc2ccccc2)C(=O)O)NC(=O)[C@H](CO)NC1=O` [LAS, pGlu-Val-Arg-Phe-Arg-Gln-Cys-Tyr-Phe-Asn-Pro-Ile-Ser-Cys-Phe-OH] ([pGlu]VRFRQCYFNPISCF-OH; disulfide 7-14), the “allatostatin activity in bioassay” value (crude oxidized synthetic peptide, before reversed phase LC purification) was “exhibits allatostatin activity”.

`CC[C@H](C)[C@@H]1NC(=O)[C@@H]2CCCN2C(=O)[C@H](CC(N)=O)NC(=O)[C@H](Cc2ccccc2)NC(=O)[C@H](Cc2ccc(O)cc2)NC(=O)[C@@H](NC(=O)[C@H](CCC(N)=O)NC(=O)[C@H](CCCNC(=N)N)NC(=O)[C@H](Cc2ccccc2)NC(=O)[C@H](CCCNC(=N)N)NC(=O)[C@@H](NC(=O)[C@@H]2CCC(=O)N2)C(C)C)CSSC[C@@H](C(=O)N[C@@H](Cc2ccccc2)C(N)=O)NC(=O)[C@H](CO)NC1=O` [amidated form] ([pGlu]VRFRQCYFNPISCF-NH2; disulfide 7-14) was tested, and the level of activity (amidated carboxy terminus compared with Native LAS with free carboxy terminus, the test is not given) was “same level of activity”.
